Results taken from PMC8759733 (Journal of Enzyme Inhibition and Medicinal Chemistry, 2021).
Entries after “also recorded” stand apart in the source; their conditions may differ.

Legend:
[1] = target: Acetylcholinesterase (AChE) (Electrophorus electricus, UniProt O42275); test: Cholinesterase inhibition activity assay; type: biochemical; conditions: for inhibition at 1 µg/mL: read-out: Percentage of AChE inhibition at 1 µg/mL
[2] = target: butyrylcholinesterase (BChE) (Equus caballus, UniProt P81908); test: Cholinesterase inhibition activity assay; type: biochemical, Equine serum; conditions: read-out: BChE Percentage of inhibition at 4 µg/mL
butyrylcholinesterase (BChE), sequence (P81908 whole entry): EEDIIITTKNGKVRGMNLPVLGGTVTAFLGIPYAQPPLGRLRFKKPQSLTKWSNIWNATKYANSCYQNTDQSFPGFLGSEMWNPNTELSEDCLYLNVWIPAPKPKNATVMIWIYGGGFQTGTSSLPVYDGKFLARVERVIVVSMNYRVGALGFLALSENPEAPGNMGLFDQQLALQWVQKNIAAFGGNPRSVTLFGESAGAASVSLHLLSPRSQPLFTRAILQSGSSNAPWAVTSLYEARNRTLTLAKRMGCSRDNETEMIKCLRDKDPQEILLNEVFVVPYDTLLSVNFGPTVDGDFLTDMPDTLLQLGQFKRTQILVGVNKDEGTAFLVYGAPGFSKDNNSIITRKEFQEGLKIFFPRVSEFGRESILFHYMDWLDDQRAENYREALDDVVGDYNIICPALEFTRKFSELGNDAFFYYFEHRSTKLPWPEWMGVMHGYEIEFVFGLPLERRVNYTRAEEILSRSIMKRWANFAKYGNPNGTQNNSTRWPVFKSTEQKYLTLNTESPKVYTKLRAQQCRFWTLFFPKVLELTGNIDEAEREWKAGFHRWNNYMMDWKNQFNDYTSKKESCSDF

[3] = target: AChE (Electrophorus electricus, UniProt O42275); test: AChE enzyme kinetic study; type: biochemical; conditions: substrate ATCI 0.43-6.90 mM; Lineweaver-Burk plot
AChE, sequence (O42275 24-633): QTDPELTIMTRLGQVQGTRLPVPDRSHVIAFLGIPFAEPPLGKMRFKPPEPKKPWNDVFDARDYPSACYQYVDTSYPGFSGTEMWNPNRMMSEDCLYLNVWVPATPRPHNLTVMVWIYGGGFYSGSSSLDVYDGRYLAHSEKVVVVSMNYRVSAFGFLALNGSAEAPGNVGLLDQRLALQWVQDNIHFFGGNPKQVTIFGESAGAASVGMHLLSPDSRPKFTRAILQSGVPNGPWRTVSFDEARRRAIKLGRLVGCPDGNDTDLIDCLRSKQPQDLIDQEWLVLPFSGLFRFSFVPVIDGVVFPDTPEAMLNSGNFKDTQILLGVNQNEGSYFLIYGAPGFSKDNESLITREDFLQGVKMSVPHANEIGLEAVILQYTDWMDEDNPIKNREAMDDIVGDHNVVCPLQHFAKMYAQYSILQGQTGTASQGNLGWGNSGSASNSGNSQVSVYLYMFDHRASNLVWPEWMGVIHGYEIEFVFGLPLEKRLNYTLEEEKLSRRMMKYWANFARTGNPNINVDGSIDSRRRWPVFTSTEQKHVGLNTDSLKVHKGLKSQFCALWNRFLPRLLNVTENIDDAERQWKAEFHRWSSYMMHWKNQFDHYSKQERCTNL

Acetylcholinesterase (AChE), sequence (O42275 24-633): as above

Row | SMILES | IC50 [1] | inhibition at 4 µg/mL [2] | inhibition at 1 µg/mL [1] | Mode of AChE inhibition [3]
1 | O=c1c2ccccc2oc2cc(O)ccc12 [Compound 1, 3-hydroxyxanthone] | 2.39 ± 0.11 µM | 6.55 ± 0.82% |  | 
2 | CCCOc1ccc2c(=O)c3ccccc3oc2c1 [Compound 2, 3-Propoxy-9H-xanthen-9-one] | 1.86 ± 0.04 µM | 11.9 ± 1.74% |  | 
3 | CCCCOc1ccc2c(=O)c3ccccc3oc2c1 [Compound 3, 3-Butoxy-9H-xanthen-9-one] | 1.4 ± 0.14 µM | 17.6 ± 1.89% |  | 
4 | CC(C)Oc1ccc2c(=O)c3ccccc3oc2c1 [Compound 4, 3-Isopropoxy-9H-xanthen-9-one] | 1.41 ± 0.13 µM | 20.7 ± 1.75% |  | 
5 | CC(C)COc1ccc2c(=O)c3ccccc3oc2c1 [Compound 5, 3-Isobutoxy-9H-xanthen-9-one] | 1.18 ± 0.11 µM | 9.78 ± 1.22% |  | 
6 | CC(C)CCOc1ccc2c(=O)c3ccccc3oc2c1 [Compound 6, 3-(Isopentyloxy)-9H-xanthen-9-one] | 1.84 ± 0.21 µM | 5.47 ± 0.61% |  | 
7 | CC[C@H](C)COc1ccc2c(=O)c3ccccc3oc2c1 [Compound 7, (S)-3-(2-Methylbutoxy)-9H-xanthen-9-one] | 1.74 ± 0.2 µM | 24.8 ± 1.96% |  | 
8 | CCC(CC)COc1ccc2c(=O)c3ccccc3oc2c1 [Compound 8, 3-(2-Ethylbutoxy)-9H-xanthen-9-one] | 1.15 ± 0.19 µM | 12.6 ± 1.26% |  | 
9 | CC(C)CCCOc1ccc2c(=O)c3ccccc3oc2c1 [Compound 9, 3-((4-Methylpentyl)oxy)-9H-xanthen-9-one] | 2.07 ± 0.06 µM | 11.8 ± 0.98% |  | 
10 | O=c1c2ccccc2oc2cc(OCC3CCC3)ccc12 [Compound 10, 3-(Cyclobutylmethoxy)-9H-xanthen-9-one] | 1.61 ± 0.11 µM | 7.01 ± 1.16% |  | 
11 | O=c1c2ccccc2oc2cc(OCCC3CCCCC3)ccc12 [Compound 11, 3-(2-Cyclohexylethoxy)-9H-xanthen-9-one] | 1.27 ± 0.13 µM | 24.3 ± 2.29% |  | 
12 | C=CCCOc1ccc2c(=O)c3ccccc3oc2c1 [Compound 12, 3-(But-3-en-1-yloxy)-9H-xanthen-9-one] | 2.09 ± 0.21 µM | 5.33 ± 0.17% |  | 
13 | C=CCCCOc1ccc2c(=O)c3ccccc3oc2c1 [Compound 13, 3-(Pent-4-en-1-yloxy)-9H-xanthen-9-one] | > 3.57 µM | 20.9 ± 3.07% | < 50% | 
14 | C=CCCCCOc1ccc2c(=O)c3ccccc3oc2c1 [Compound 14, 3-(Hex-5-en-1-yloxy)-9H-xanthen-9-one] | > 3.4 µM | 16.4 ± 1.34% | < 50% | 
15 | C=C(C)COc1ccc2c(=O)c3ccccc3oc2c1 [Compound 15, 3-((2-Methylallyl)oxy)-9H-xanthen-9-one] | 1.6 ± 0.15 µM | 2.33 ± 0.3% |  | 
16 | CC(C)=CCOc1ccc2c(=O)c3ccccc3oc2c1 [Compound 16, 3-((3-Methylbut-2-en-1-yl)oxy)-9H-xanthen-9-one] | 1.86 ± 0.15 µM | 7.96 ± 1.22% |  | 
17 | CC(C)=CCCOc1ccc2c(=O)c3ccccc3oc2c1 [Compound 17, 3-((4-Methylpent-3-en-1-yl)oxy)-9H-xanthen-9-one] | 1.06 ± 0.12 µM | 20.9 ± 3.03% |  | 
18 | CC#CCOc1ccc2c(=O)c3ccccc3oc2c1 [Compound 18, 3-(But-2-yn-1-yloxy)-9H-xanthen-9-one] | > 3.79 µM | 4.53 ± 0.88% | < 50% | 
19 | CCC#CCOc1ccc2c(=O)c3ccccc3oc2c1 [Compound 19, 3-(Pent-2-yn-1-yloxy)-9H-xanthen-9-one] | 1.21 ± 0.05 µM | 5.24 ± 0.25% |  | 
20 | C#CC(C)Oc1ccc2c(=O)c3ccccc3oc2c1 (centres unmarked) [Compound 20, 3-(But-3-yn-2-yloxy)-9H-xanthen-9-one] | 2.24 ± 0.17 µM | 5 ± 0.74% |  | 
21 | O=c1c2ccccc2oc2cc(OCc3ccccc3)ccc12 [Compound 21, 3-(Benzyloxy)-9H-xanthen-9-one] | 0.99 ± 0.19 µM | 5.04 ± 0.7% |  | 
22 | O=c1c2ccccc2oc2cc(OCCCc3ccccc3)ccc12 [Compound 22, 3-(3-Phenylpropoxy)-9H-xanthen-9-one] | 1.22 ± 0.12 µM | 15.5 ± 1.93% |  | 
23 | O=c1c2ccccc2oc2cc(OCCCCc3ccccc3)ccc12 [Compound 23, 3-(4-Phenylbutoxy)-9H-xanthen-9-one] | 0.88 ± 0.04 µM | 9.19 ± 0.55% |  | mixed inhibition mechanism; also recorded: mixed-mode inhibition
24 | COCCCOc1ccc2c(=O)c3ccccc3oc2c1 [Compound 24, 3-(3-Methoxypropoxy)-9H-xanthen-9-one] | > 3.52 µM | 11 ± 1.38% | < 50% | 
25 | COCOCCOc1ccc2c(=O)c3ccccc3oc2c1 [Compound 25, 3-(2-(Methoxymethoxy)ethoxy)-9H-xanthen-9-one] | 1.37 ± 0.12 µM | 10.3 ± 1.24% |  | 
26 | COCCOCCOc1ccc2c(=O)c3ccccc3oc2c1 [Compound 26, 3-(2-(2-Methoxyethoxy)ethoxy)-9H-xanthen-9-one] | 0.97 ± 0.06 µM | 17.8 ± 1.6% |  | 
27 | COC(=O)COc1ccc2c(=O)c3ccccc3oc2c1 [Compound 27, Methyl 2-((9-oxo-9H-xanthen-3-yl)oxy)acetate] | 1.28 ± 0.13 µM | 7.69 ± 0.34% |  | 
28 | CCOC(=O)COc1ccc2c(=O)c3ccccc3oc2c1 [Compound 28, Ethyl 2-((9-oxo-9H-xanthen-3-yl)oxy)acetate] | 0.88 ± 0.15 µM | 4.11 ± 0.35% |  | mixed inhibition mechanism; also recorded: mixed-mode inhibition
29 | C[C@H](CO)COc1ccc2c(=O)c3ccccc3oc2c1 [Compound 29, (R)-3-(3-Hydroxy-2-methylpropoxy)-9H-xanthen-9-one] | > 3.52 µM | 13.9 ± 0.96% | < 50% | 
30 | C[C@@H](CO)COc1ccc2c(=O)c3ccccc3oc2c1 [Compound 30, (S)-3-(3-hydroxy-2-methylpropoxy)-9H-xanthen-9-one] | > 3.52 µM | 5.48 ± 0.31% | < 50% | 
